The results in this text go back to patent US20030027787A1, “Crosslinked polysaccharide, obtained by crosslinking with substituted polyethylene glycol, as superabsorbant” (GROUP LYSAC INC./LYSAC GROUP INC., priority 2000, published 2003).

For “Starch Maleate Half Ester, Crosslinked with 0.08 Eq. Triglycol Dichloride [Example 21]”, the toxicity for microorganisms result in the series on microorganisms is given as “no toxicity”. Besides, in the series on Daphnia magna, the “toxic product destroying the aquatic flora” value was “no toxic product have been detected”.
